# Laboratory results from PubChem BioAssay AID180 (DTP/NCI, 2004).
# Values joined by “and” are separate entries in the source; they are usually repeats but may differ in a detail not shown here. Identical values can stand only once. Starred links: 1 amine or outer side, 2 acyl side, 3 side chain; linkers in the order of their positions; H or OH if unused. Positions of bridges follow the written chain, without caps; N, C: chain ends. Non-standard residues stand in square brackets, D forms with d. Residues, ends and D or L forms follow the SMILES beside them. Chains are numbered I, II in the order given. Actinocin(9to1) = Cc1c2oc3c(C)ccc(C(=O)[*:1])c3nc-2c(C(=O)[*:2])c(N)c1=O; aThr = C[C@H](O)[C@H](N)C(=O)O; NMeV = CN[C@H](C(=O)O)C(C)C; Sar = CNCC(=O)O
# Tested on: BDF1 mice, Adenocarcinoma 755 s.c., tumor weight T/C
# Test: NCI In Vivo Anticancer Drug Screen. Data for tumor model Adenocarcinoma 755 (subcutaneous) in B6D2F1 (BDF1) mice
# Conditions: endpoint: mean tumor weight, higher = larger tumour
# How it was run: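 Tumor-bearing mice receive test compound while controls get vehicle alone. Antitumor effect is scored from survival or tumor dimensions as a T/C quotient.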
# [1] = dose: 2.0 mg/kg/injection, schedule: Q01DX011 (ip), vehicle: carboxymethylcellulose (CMC)
# [2] = dose: 4.0 mg/kg/injection, schedule: Q01DX011 (ip), vehicle: carboxymethylcellulose (CMC)
compound,measurement,setting,value
Nc1nc(SCc2ccc([N+](=O)[O-])cc2)c2[nH]cnc2n1,T/C,"dose: 600.0 mg/kg/injection, schedule: Q01DX011 (ip), vehicle: carboxymethylcellulose (CMC)",10 % of control
same,T/C,"dose: 750.0 mg/kg/injection, schedule: Q01DX011 (ip), vehicle: carboxymethylcellulose (CMC)",10 % of control
same,T/C,"dose: 800.0 mg/kg/injection, schedule: Q01DX011 (ip), vehicle: carboxymethylcellulose (CMC)",8 % of control
same,T/C,"dose: 900.0 mg/kg/injection, schedule: Q01DX011 (ip), vehicle: carboxymethylcellulose (CMC)",1 % of control and 5 % of control
same,T/C,"dose: 1000.0 mg/kg/injection, schedule: Q01DX011 (ip), vehicle: carboxymethylcellulose (CMC)",6 % of control
CCCCNC(=O)c1n[se]nc1N,T/C,[1],76 % of control
same,T/C,[2],87 % of control
COc1cc(-c2ccc(N=Nc3ccc4c(S(=O)(=O)O)cc(S(=O)(=O)O)c(N)c4c3O)c(OC)c2)ccc1N=Nc1ccc2c(S(=O)(=O)O)cc(S(=O)(=O)O)c(N)c2c1O,T/C,"dose: 1.0 mg/kg/injection, schedule: Q01DX011 (ip), vehicle: carboxymethylcellulose (CMC)",74 % of control
same,T/C,[1],38 % of control
same,T/C,[2],44 % of control
same,T/C,"dose: 8.0 mg/kg/injection, schedule: Q01DX011 (ip), vehicle: carboxymethylcellulose (CMC)",31 % of control and 43 % of control
CC1CCCCN1/N=N/c1nc2c([nH]1)c(=O)n(C)c(=O)n2C (centres undefined),T/C,"dose: 25.0 mg/kg/injection, schedule: Q01DX011 (ip), vehicle: methylcellulose (MC)",59 % of control
same,T/C,"dose: 75.0 mg/kg/injection, schedule: Q01DX011 (ip), vehicle: methylcellulose (MC)",68 % of control
CC1(O)CCC2C3CCC4=CC(=O)CCC4C3CCC21C (centres undefined),T/C,"dose: 50.0 mg/kg/injection, schedule: Q01DX011 (sc), vehicle: steriod suspending solution",93 % of control
same,T/C,"dose: 100.0 mg/kg/injection, schedule: Q01DX011 (sc), vehicle: steriod suspending solution",76 % of control
same,T/C,"dose: 200.0 mg/kg/injection, schedule: Q01DX011 (sc), vehicle: steriod suspending solution",59 % of control
same,T/C,"dose: 400.0 mg/kg/injection, schedule: Q01DX011 (sc), vehicle: steriod suspending solution",51 % of control
same,T/C,"dose: 500.0 mg/kg/injection, schedule: Q01DX011 (sc), vehicle: steriod suspending solution",47 % of control
same,T/C,"dose: 600.0 mg/kg/injection, schedule: Q01DX011 (sc), vehicle: steriod suspending solution",38 % of control
"Cc1c2oc3c(C)ccc(C(=O)N[C@@H]4C(=O)N[C@H](C(C)C)C(=O)N5CCC[C@H]5C(=O)N(C)CC(=O)N(C)[C@@H](C(C)C)C(=O)O[C@H]4C)c3nc-2c(C(=O)N[C@@H]2C(=O)N[C@H](C(C)C)C(=O)N3CCC[C@H]3C(=O)N(C)CC(=O)N(C)[C@@H](C(C)C)C(=O)O[C@H]2C)c(N)c1=O (I: [aThr][dV]P[Sar][NMeV] / II: [aThr][dV]P[Sar][NMeV]; ester I:1-I:C, II:1-II:C; linker I:N-II:N via Actinocin(9to1))",T/C,"dose: 0.02 mg/kg/injection, schedule: Q01DX011 (ip), vehicle: saline",2 % of control
same,T/C,"dose: 0.03 mg/kg/injection, schedule: Q01DX011 (ip), vehicle: carboxymethylcellulose (CMC)",9 % of control
same,T/C,"dose: 0.04 mg/kg/injection, schedule: Q01DX011 (ip), vehicle: carboxymethylcellulose (CMC)",105 % of control
same,T/C,"dose: 0.08 mg/kg/injection, schedule: Q01DX011 (ip), vehicle: carboxymethylcellulose (CMC)",39 % of control
same,T/C,"dose: 12.0 micrograms/kg/injection, schedule: Q01DX011 (ip), vehicle: carboxymethylcellulose (CMC)",101 % of control
same,T/C,"dose: 15.0 micrograms/kg/injection, schedule: Q01DX011 (ip), vehicle: carboxymethylcellulose (CMC)",82 % of control
same,T/C,"dose: 24.0 micrograms/kg/injection, schedule: Q01DX011 (ip), vehicle: carboxymethylcellulose (CMC)",26 % of control and 43 % of control
same,T/C,"dose: 40.0 micrograms/kg/injection, schedule: Q01DX011 (ip), vehicle: carboxymethylcellulose (CMC)",4 % of control and 13 % of control
same,T/C,"dose: 48.0 micrograms/kg/injection, schedule: Q01DX011 (ip), vehicle: carboxymethylcellulose (CMC)",10 % of control and 11 % of control
same,T/C,"dose: 53.0 micrograms/kg/injection, schedule: Q01DX011 (ip), vehicle: carboxymethylcellulose (CMC)",3 % of control and 4 % of control
same,T/C,"dose: 95.0 micrograms/kg/injection, schedule: Q01DX011 (ip), vehicle: carboxymethylcellulose (CMC)",2 % of control
Nc1nc(NC2CCCCC2)cc(=O)[nH]1,T/C,"dose: 50.0 mg/kg/injection, schedule: Q01DX011 (ip), vehicle: methylcellulose (MC)",56 % of control
same,T/C,"dose: 100.0 mg/kg/injection, schedule: Q01DX011 (ip), vehicle: methylcellulose (MC)",55 % of control
same,T/C,"dose: 200.0 mg/kg/injection, schedule: Q01DX011 (ip), vehicle: methylcellulose (MC)",51 % of control
same,T/C,"dose: 400.0 mg/kg/injection, schedule: Q01DX011 (ip), vehicle: methylcellulose (MC)",33 % of control
